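Step 1: Grow cells in 96-well plates. Step 2: Expose to compound for 48 hours at 5 concentrations. Step 3: Interpolate endpoints linearly; if unreached, use highest concentration. GI50: concentration for 50% inhibition of growth. TGI: total growth inhibition.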
What was measured:
Assay in all cases: NCI anticancer screen, dose series, 48 h
[1] = test system: SK-OV-3 ovarian
[2] = test system: BT-549 breast
[3] = test system: HCT-116 colon
[4] = test system: MOLT-4 leukemia
[5] = test system: RPMI-8226 leukemia
[6] = test system: SK-MEL-2 melanoma
[7] = test system: CCRF-CEM leukemia
[8] = test system: MDA-MB-231 breast
[9] = test system: MCF7 breast
[10] = test system: NCI/ADR-RES ovarian
[11] = test system: K-562 leukemia
[12] = test system: SK-MEL-28 melanoma
[13] = test system: MDA-MB-435
[14] = test system: RXF 393 renal
[15] = test system: UACC-62 melanoma
[16] = test system: CAKI-1 renal
[17] = test system: NCI-H23 lung
[18] = test system: HL-60(TB) leukemia
[19] = test system: HOP-62 NSCLC
[20] = test system: UACC-257 melanoma
[21] = test system: SR leukemia
[22] = test system: SNB-19 CNS
[23] = test system: COLO 205 colon
[24] = test system: HCC-2998 colon
[25] = test system: A498 renal
[26] = test system: TK-10 renal
[27] = test system: KM12 colon
[28] = test system: HOP-92 NSCLC
[29] = test system: SW-620 colon
[30] = test system: 786-0 renal
[31] = test system: HCT-15 colon
[32] = test system: PC-3 prostate
[33] = test system: OVCAR-8 ovarian
[34] = test system: HT29 colon
[35] = test system: HS 578T breast
[36] = test system: ACHN renal
[37] = test system: SF-268 CNS
[38] = test system: SNB-75 CNS
[39] = test system: SF-295 CNS
[40] = test system: NCI-H226 lung
[41] = test system: SK-MEL-5 melanoma
[42] = test system: U251 CNS
[43] = test system: OVCAR-4 ovarian
[44] = test system: EKVX NSCLC
[45] = test system: IGROV1 ovarian
[46] = test system: UO-31 renal
[47] = test system: SF-539 CNS
[48] = test system: LOX IMVI melanoma
[49] = test system: M14 melanoma
[50] = test system: SN12C renal
[51] = test system: OVCAR-3 ovarian
[52] = test system: A549 NSCLC
[53] = test system: NCI-H522 lung
[54] = test system: OVCAR-5 ovarian
[55] = test system: MALME-3M melanoma
[56] = test system: DU-145 prostate
[57] = test system: NCI-H460 lung

## COc1ccc(NC(=S)N/N=C/c2c(C)n(C)n(-c3ccccc3)c2=O)cc1
[1]
  TGI: 82.6 µM
[2]
  TGI: > 100 µM
[3]
  TGI: > 100 µM
[4]
  TGI: > 100 µM
[5]
  TGI: > 100 µM
[6]
  TGI: > 100 µM
[7]
  TGI: > 100 µM
[8]
  TGI: 62.6 µM
[9]
  TGI: > 100 µM
[10]
  TGI: > 100 µM
[11]
  TGI: > 100 µM
[12]
  TGI: > 100 µM
[13]
  TGI: > 100 µM
[14]
  TGI: 56.6 µM
[15]
  TGI: > 100 µM
[16]
  TGI: 51.8 µM
[17]
  TGI: > 100 µM
[18]
  TGI: > 100 µM
[19]
  TGI: 41.7 µM
[20]
  TGI: > 100 µM
[21]
  TGI: > 100 µM
[22]
  TGI: 46.2 µM
[23]
  TGI: > 100 µM
[24]
  TGI: > 100 µM
[25]
  TGI: 49.8 µM
[26]
  TGI: > 100 µM
[27]
  TGI: > 100 µM
[28]
  TGI: 65.4 µM
[29]
  TGI: > 100 µM
[30]
  TGI: 60.4 µM
[31]
  TGI: > 100 µM
[32]
  TGI: > 100 µM
[33]
  TGI: 55.7 µM
[34]
  TGI: > 100 µM
[35]
  TGI: 70.3 µM
[36]
  TGI: > 100 µM
[37]
  TGI: 70.7 µM
[38]
  TGI: 84.3 µM
[39]
  TGI: > 100 µM
[40]
  TGI: > 100 µM
[41]
  TGI: > 100 µM
[42]
  TGI: 51.7 µM
[43]
  TGI: 39.8 µM
[44]
  TGI: > 100 µM
[45]
  TGI: > 100 µM
[46]
  TGI: > 100 µM
[47]
  TGI: 59.4 µM
[48]
  TGI: > 100 µM
[49]
  TGI: > 100 µM

## COc1cccc2cc(N(C)c3ncnc4ccccc34)ccc12
[1]
  GI50: < 0.01 µM
  TGI: 18.4 µM
[2]
  GI50: 0.0185 µM
  TGI: 6.64 µM
[3]
  GI50: < 0.01 µM
  TGI: 0.521 µM
[4]
  GI50: 0.0237 µM
  TGI: 15.2 µM
[5]
  TGI: 4.99 µM
[6]
  GI50: 0.142 µM
  TGI: 14.4 µM
[7]
  GI50: < 0.0147 µM
  TGI: 17.8 µM
[8]
  GI50: 0.025 µM
  TGI: 13 µM
[50]
  GI50: < 0.0159 µM
  TGI: 13.3 µM
[9]
  GI50: < 0.01 µM
  TGI: 12.3 µM
[10]
  GI50: < 0.01 µM
  TGI: 0.629 µM
[11]
  GI50: < 0.01 µM
  TGI: 25.1 µM
[12]
  GI50: 1.35 µM
  TGI: 13.8 µM
[14]
  GI50: < 0.01 µM
  TGI: 20 µM
[51]
  GI50: < 0.01 µM
  TGI: < 0.0107 µM
[52]
  GI50: < 0.01 µM
  TGI: 9.11 µM
[16]
  GI50: < 0.01 µM
  TGI: 12.3 µM
[17]
  GI50: < 0.0156 µM
  TGI: 6.26 µM
[18]
  GI50: < 0.01 µM
  TGI: 0.0486 µM
[53]
  GI50: < 0.01 µM
  TGI: 3.12 µM
[19]
  GI50: < 0.01 µM
  TGI: 15.4 µM
[20]
  GI50: 0.283 µM
  TGI: 10.6 µM
[21]
  GI50: < 0.01 µM
  TGI: 24.8 µM
[22]
  GI50: < 0.0132 µM
  TGI: 18.4 µM
[23]
  GI50: < 0.01 µM
  TGI: 0.0659 µM
[24]
  GI50: 0.0211 µM
  TGI: 5.43 µM
[25]
  GI50: < 0.01 µM
  TGI: 11 µM
[26]
  TGI: 16.9 µM
[54]
  GI50: 0.0319 µM
  TGI: 17.4 µM
[27]
  GI50: < 0.01 µM
  TGI: 1.07 µM
[28]
  GI50: < 0.01 µM
  TGI: 1.03 µM
[29]
  GI50: < 0.01 µM
  TGI: 17.6 µM
[30]
  GI50: < 0.0167 µM
  TGI: 5.9 µM
[55]
  GI50: < 0.0484 µM
  TGI: 10.1 µM
[31]
  GI50: < 0.01 µM
  TGI: 12.8 µM
[32]
  GI50: < 0.01 µM
  TGI: 15.6 µM
[33]
  GI50: 0.0172 µM
  TGI: 32.6 µM
[34]
  GI50: < 0.01 µM
  TGI: 11.8 µM
[35]
  GI50: < 0.01 µM
  TGI: 20.4 µM
[56]
  GI50: < 0.01 µM
  TGI: 10.4 µM
[36]
  GI50: < 0.01 µM
  TGI: 7.52 µM
[37]
  GI50: 0.0221 µM
  TGI: 14.1 µM
[57]
  GI50: < 0.01 µM
  TGI: 10.8 µM
[38]
  GI50: < 0.0105 µM
  TGI: 13 µM
[39]
  GI50: < 0.01 µM
  TGI: 11.4 µM
[40]
  GI50: < 0.01 µM
  TGI: 0.827 µM
[41]
  GI50: < 0.01 µM
  TGI: 0.0374 µM
[42]
  GI50: < 0.01 µM
  TGI: 11.6 µM
[43]
  GI50: < 0.0161 µM
  TGI: 13.5 µM
[44]
  GI50: 0.0772 µM
  TGI: 13.6 µM
[45]
  GI50: < 0.01 µM
  TGI: 12.2 µM
[46]
  GI50: < 0.0287 µM
  TGI: 13.8 µM
[47]
  GI50: < 0.01 µM
[48]
  GI50: < 0.0123 µM
  TGI: 13.5 µM
[49]
  GI50: < 0.01 µM
  TGI: 13.7 µM

## COc1cc(C(C)c2ccc3c(ccn3C)c2)cc(OC)c1OC (stereo not given)
[1]
  GI50: < 0.01 µM
  TGI: 60.7 µM
[2]
  GI50: 0.0231 µM
  TGI: 19.3 µM
[4]
  GI50: 0.0449 µM
  TGI: > 100 µM
[5]
  GI50: 0.0362 µM
  TGI: 22.6 µM
[6]
  GI50: 0.0984 µM
  TGI: 95.8 µM
[7]
  GI50: 0.0307 µM
  TGI: > 100 µM
[8]
  GI50: 0.0551 µM
  TGI: 34.8 µM
[50]
  GI50: 0.0671 µM
  TGI: > 100 µM
[10]
  GI50: < 0.01 µM
  TGI: > 100 µM
[11]
  GI50: < 0.01 µM
  TGI: > 100 µM
[12]
  GI50: 8.09 µM
  TGI: > 100 µM
[14]
  GI50: < 0.01 µM
  TGI: > 100 µM
[52]
  GI50: 0.0233 µM
  TGI: > 100 µM
[17]
  GI50: 0.0268 µM
  TGI: > 100 µM
[19]
  GI50: 0.0385 µM
  TGI: > 100 µM
[20]
  GI50: 19.4 µM
  TGI: 77.6 µM
[21]
  GI50: < 0.01 µM
  TGI: > 100 µM
[22]
  GI50: 0.0405 µM
  TGI: > 100 µM
[23]
  GI50: < 0.01 µM
  TGI: 0.0461 µM
[24]
  GI50: 0.0276 µM
  TGI: > 100 µM
[26]
  GI50: 16.5 µM
  TGI: 92.6 µM
[54]
  GI50: 0.0559 µM
  TGI: > 100 µM
[27]
  GI50: < 0.01 µM
  TGI: 60.2 µM
[28]
  GI50: 0.0251 µM
  TGI: 45.4 µM
[29]
  GI50: < 0.01 µM
  TGI: > 100 µM
[30]
  GI50: 0.0288 µM
  TGI: 26.7 µM
[55]
  GI50: 11.6 µM
  TGI: 63.3 µM
[31]
  GI50: 0.0106 µM
  TGI: > 100 µM
[32]
  GI50: 0.0171 µM
  TGI: > 100 µM
[33]
  GI50: 0.0363 µM
  TGI: 38.5 µM
[34]
  GI50: < 0.01 µM
  TGI: 14.2 µM
[35]
  GI50: 0.0148 µM
  TGI: > 100 µM
[56]
  GI50: 0.0343 µM
  TGI: > 100 µM
[36]
  GI50: 0.0172 µM
  TGI: > 100 µM
[37]
  GI50: 0.0393 µM
  TGI: > 100 µM
[57]
  GI50: 0.0117 µM
  TGI: > 100 µM
[39]
  GI50: < 0.01 µM
  TGI: 32.5 µM
[40]
  GI50: 10.9 µM
  TGI: 57.3 µM
[41]
  GI50: < 0.01 µM
  TGI: 0.391 µM
[42]
  GI50: < 0.01 µM
  TGI: 39 µM
[43]
  GI50: 0.414 µM
  TGI: > 100 µM
[44]
  GI50: 0.0674 µM
  TGI: > 100 µM
[45]
  GI50: 0.0291 µM
  TGI: > 100 µM
[46]
  GI50: 0.189 µM
  TGI: 62.2 µM
[47]
  GI50: < 0.01 µM
  TGI: 15.2 µM
[48]
  GI50: 0.0207 µM
  TGI: > 100 µM
[49]
  GI50: < 0.01 µM
  TGI: 22 µM

## O=C1C(=O)c2ccccc2C(O)=C1Cc1ccccc1
[1]
  TGI: > 100 µM
[2]
  TGI: > 100 µM
[3]
  TGI: > 100 µM
[6]
  TGI: > 100 µM
[8]
  TGI: > 100 µM
[10]
  TGI: > 100 µM
[12]
  TGI: > 100 µM
[51]
  TGI: 79.7 µM
[17]
  TGI: > 100 µM
[20]
  TGI: > 100 µM
[24]
  TGI: > 100 µM
[25]
  TGI: > 100 µM
[26]
  TGI: > 100 µM
[54]
  TGI: > 100 µM
[30]
  TGI: > 100 µM
[31]
  TGI: > 100 µM
[32]
  TGI: > 100 µM
[34]
  TGI: > 100 µM
[35]
  TGI: > 100 µM
[39]
  TGI: > 100 µM
[41]
  TGI: 39 µM
[43]
  TGI: > 100 µM
[44]
  TGI: > 100 µM
[46]
  TGI: > 100 µM
[49]
  TGI: > 100 µM

From PubChem BioAssay (NCI)
